Calls of active or inactive are those of the source. The calls are words filed in the database; no cut-off is given here.
Columns and labels:
Histone deacetylase 1 = Histone deacetylase 1 (Homo sapiens, UniProt Q13547); experiment: Inhibition of full length N-terminal human recombinant HDAC1 at 1 uM incubated for 30 mins by fluorescence based microplate assay relative to control
MDA-MB-453 = experiment: Cytotoxicity against human MDA-MB-453 cells assessed as inhibition of cell growth incubated for 72 hrs by MTT assay; assay type: functional, cell-based; conditions: MDA-MB-453, 72 h
[1] = Cytotoxicity against human HCEC cells assessed as inhibition of cell growth incubated for 72 hrs by MTT assay; assay type: toxicity, cell-based; conditions: human, HCEC cells
[2] = AUC (0 to t) in Wistar rat at 15 mg/kg, ip measured upto 24 hrs by HPLC analysis; assay type: ADME, organism-based; set-up: dose 15 mg/kg, time < 24 hrs, route ip; conditions: in vivo
[3] = MRT (0 to infinity) in Wistar rat at 5 mg/kg, ip measured upto 24 hrs by HPLC analysis; assay type: ADME, organism-based; conditions: in vivo
[4] = Apparent volume of distribution in Wistar rat at 5 mg/kg, ip measured upto 24 hrs by HPLC analysis; assay type: ADME, organism-based; conditions: in vivo
Histone deacetylase 2 = Histone deacetylase 2 (Homo sapiens, UniProt Q92769); experiment: Inhibition of human recombinant HDAC2 incubated for 30 mins by fluorescence based microplate analysis
Chain of Histone deacetylase 2 (Q92769 whole entry): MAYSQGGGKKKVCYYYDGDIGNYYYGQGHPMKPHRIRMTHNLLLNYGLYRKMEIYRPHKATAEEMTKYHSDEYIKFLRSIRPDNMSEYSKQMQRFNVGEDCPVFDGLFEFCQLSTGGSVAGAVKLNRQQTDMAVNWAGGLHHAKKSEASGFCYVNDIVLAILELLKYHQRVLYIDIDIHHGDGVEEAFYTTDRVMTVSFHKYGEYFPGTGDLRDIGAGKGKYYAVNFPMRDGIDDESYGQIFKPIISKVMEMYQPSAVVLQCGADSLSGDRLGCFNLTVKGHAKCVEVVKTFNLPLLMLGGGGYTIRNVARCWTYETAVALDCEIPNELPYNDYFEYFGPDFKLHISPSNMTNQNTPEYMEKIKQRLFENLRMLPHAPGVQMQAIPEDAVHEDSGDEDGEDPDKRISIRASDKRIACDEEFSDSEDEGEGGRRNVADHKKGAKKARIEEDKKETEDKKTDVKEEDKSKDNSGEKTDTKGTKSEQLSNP

Histone deacetylase 3 = Histone deacetylase 3 (Homo sapiens, UniProt O15379); experiment: Inhibition of human recombinant HDAC3 incubated for 15 mins by fluorescence based microplate analysis
Chain of Histone deacetylase 3 (O15379 whole entry): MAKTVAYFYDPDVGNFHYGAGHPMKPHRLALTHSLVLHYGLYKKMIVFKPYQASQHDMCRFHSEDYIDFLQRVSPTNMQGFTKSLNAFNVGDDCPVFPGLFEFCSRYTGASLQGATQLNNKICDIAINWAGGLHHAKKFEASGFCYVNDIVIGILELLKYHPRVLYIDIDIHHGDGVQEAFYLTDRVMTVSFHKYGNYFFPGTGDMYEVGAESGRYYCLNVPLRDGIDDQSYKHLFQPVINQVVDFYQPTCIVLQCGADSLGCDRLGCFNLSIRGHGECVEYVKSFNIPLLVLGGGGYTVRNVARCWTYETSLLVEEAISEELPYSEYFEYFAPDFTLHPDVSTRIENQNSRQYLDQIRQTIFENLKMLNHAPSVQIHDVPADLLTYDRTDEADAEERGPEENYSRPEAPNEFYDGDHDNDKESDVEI

Histone deacetylase 4 = Histone deacetylase 4 (Homo sapiens, UniProt P56524); experiment: Inhibition of HDAC4 (unknown origin) incubated for 30 mins by fluorescence based microplate analysis
Chain of Histone deacetylase 4 (P56524 whole entry): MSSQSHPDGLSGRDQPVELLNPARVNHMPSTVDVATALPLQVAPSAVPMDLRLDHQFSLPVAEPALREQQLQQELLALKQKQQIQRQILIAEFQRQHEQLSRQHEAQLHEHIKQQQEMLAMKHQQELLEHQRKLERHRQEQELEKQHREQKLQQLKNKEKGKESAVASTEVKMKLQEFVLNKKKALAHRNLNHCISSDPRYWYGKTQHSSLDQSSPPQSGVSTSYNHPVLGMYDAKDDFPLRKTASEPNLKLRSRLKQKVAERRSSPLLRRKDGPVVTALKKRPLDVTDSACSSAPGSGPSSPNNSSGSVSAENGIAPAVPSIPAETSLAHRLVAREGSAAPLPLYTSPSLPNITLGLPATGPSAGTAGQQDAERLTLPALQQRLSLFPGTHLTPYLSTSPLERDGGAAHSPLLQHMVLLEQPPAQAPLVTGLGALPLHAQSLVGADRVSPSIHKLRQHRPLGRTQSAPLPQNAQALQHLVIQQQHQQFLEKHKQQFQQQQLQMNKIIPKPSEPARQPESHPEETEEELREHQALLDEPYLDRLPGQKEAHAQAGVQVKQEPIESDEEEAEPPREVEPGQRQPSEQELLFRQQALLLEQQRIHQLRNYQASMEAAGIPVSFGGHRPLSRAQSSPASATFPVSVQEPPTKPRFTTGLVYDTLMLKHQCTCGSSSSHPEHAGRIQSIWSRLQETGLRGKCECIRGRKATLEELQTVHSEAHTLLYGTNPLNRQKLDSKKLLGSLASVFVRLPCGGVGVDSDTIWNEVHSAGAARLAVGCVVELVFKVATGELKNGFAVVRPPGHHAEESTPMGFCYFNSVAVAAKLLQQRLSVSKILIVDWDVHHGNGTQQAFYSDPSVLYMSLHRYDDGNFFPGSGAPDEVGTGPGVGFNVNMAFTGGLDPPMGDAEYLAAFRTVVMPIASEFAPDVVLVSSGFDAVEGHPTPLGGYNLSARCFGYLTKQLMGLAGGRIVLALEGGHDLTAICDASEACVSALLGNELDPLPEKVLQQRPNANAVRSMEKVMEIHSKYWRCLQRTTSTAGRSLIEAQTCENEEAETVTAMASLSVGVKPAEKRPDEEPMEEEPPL

[5] = Selectivity ratio of IC50 for cytotoxicity against human HEK293 cells assessed as inhibition of cell growth to IC50 for cytotoxicity against human MCF7 cells assessed as inhibition of cell growth; assay type: toxicity, cell-based; conditions: HEK293 cells versus MCF7 cells, read-out: Ratio IC50
[6] = Selectivity ratio of IC50 for cytotoxicity against human HEK293 cells assessed as inhibition of cell growth to IC50 for cytotoxicity against mouse 4T1 cells assessed as inhibition of cell growth; assay type: toxicity, cell-based; conditions: HEK293 cells versus 4T1 cells, read-out: Ratio IC50
[7] = Selectivity ratio of IC50 for cytotoxicity against human HEK293 cells assessed as inhibition of cell growth to IC50 for cytotoxicity against human MDA-MB-231 cells assessed as inhibition of cell growth; assay type: toxicity, cell-based; conditions: HEK293 cells versus MDA-MB-231 cells, read-out: Ratio IC50
[8] = Selectivity ratio of IC50 for cytotoxicity against human HCEC cells assessed as inhibition of cell growth to IC50 for cytotoxicity against mouse 4T1 cells assessed as inhibition of cell growth; assay type: toxicity, cell-based; conditions: HCEC cells versus 4T1 cells, read-out: Ratio IC50
[9] = Selectivity ratio of IC50 for cytotoxicity against human HCEC cells assessed as inhibition of cell growth to IC50 for cytotoxicity against human MDA-MB-453 cells assessed as inhibition of cell growth; assay type: toxicity, cell-based; conditions: HCEC cells versus MDA-MB-453 cells, read-out: Ratio IC50
4T1 [10] = experiment: Induction of apoptosis in mouse 4T1 cells at 110 nM incubated for 72 hrs by annexin/PI staining based flow cytometry analysis (reference value: 1.35%); assay type: functional
4T1 [11] = experiment: Induction of apoptosis in mouse 4T1 cells at 7.72 uM incubated for 72 hrs by annexin/PI staining based flow cytometry analysis (reference value: 1.35%); assay type: functional
4T1 [12] = experiment: Cell cycle arrest in mouse 4T1 cells assessed as accumulation of cells at G2/M phase at 2.75 uM incubated for 72 hrs by flow cytometry; assay type: functional
MDA-MB-231 = experiment: Cytotoxicity against wild type human MDA-MB-231 cells assessed as reduction in cell viability incubated for 72 hrs by MTT assay; assay type: functional, cell-based; conditions: MDA-MB-231, 72 h
4T1 [13] = experiment: Antitumor activity against mouse 4T1 cells implanted in BALB/c mouse assessed as reduction in tumor volume at 50 to 100 mg/kg, ip administered 5 times a week for 21 days; assay type: functional, organism-based; conditions: dose 50-100 mg/kg, time 21.0 day
[14] = Toxicity against BALB/c mouse implanted with mouse 4T1 cells assessed as body weight loss at 5 to 15 mg/kg,ip administered 5 times a week for 21 days; assay type: organism-based; conditions: in vivo, 504 h, dose 5-15 mg/kg, time 21 day
4T1 [15] = experiment: Antitumor activity against mouse 4T1 cells implanted in BALB/c mouse assessed as reduction in tumor weight at 5 mg/kg, ip administered 5 times a week for 21 days; assay type: functional; conditions: time 21 day
4T1 [16] = experiment: Antitumor activity against mouse 4T1 cells implanted in BALB/c mouse assessed as tumor growth inhibition at 5 mg/kg, ip measured on day 14; assay type: functional; conditions: 4T1, 336 h, time 14 day, read-out: TGI
4T1 [17] = experiment: Antitumor activity against mouse 4T1 cells implanted in BALB/c mouse assessed as tumor growth inhibition at 15 mg/kg, ip measured on day 14; assay type: functional; conditions: 4T1, 336 h, time 14 day, read-out: TGI
4T1 [18] = experiment: Antitumor activity against mouse 4T1 cells implanted in BALB/c mouse assessed as reduction in lung metastasis at 5 to 15 mg/kg, ip measured for 7 days by fluorescence based assay; assay type: functional, organism-based; conditions: dose 5-15 mg/kg, time 7.0 day
[19] = Toxicity in BALB/c mouse implanted with mouse 4T1 cells assessed as effect on cell size in liver at 5 to 15 mg/kg, ip measured after 21 days by H and E staining based assay; assay type: organism-based; conditions: in vivo, 504 h, dose 5-15 mg/kg, time 21 day
[20] = Toxicity in BALB/c mouse implanted with mouse 4T1 cells assessed as effect on cell size in kidney at 5 to 15 mg/kg, ip measured after 21 days by H and E staining based assay; assay type: organism-based; conditions: in vivo, 504 h, dose 5-15 mg/kg, time 21 day
[21] = Toxicity in BALB/c mouse implanted with mouse 4T1 cells assessed as neutrophilic infiltration in kidney at 5 to 15 mg/kg, ip measured after 21 days; assay type: organism-based; conditions: in vivo, 504 h, dose 5-15 mg/kg, time 21 day
4T1 [22] = experiment: Antitumor activity against mouse 4T1 cells implanted in BALB/c mouse assessed as decrease in number of lung aggregated cells at 15 mg/kg, ip measured for 7 days by H and E staining based assay; assay type: functional, organism-based; conditions: time 7.0 day
4T1 [23] = experiment: In-vivo inhibition of HDAC3 in ip dosed BALB/c mouse implanted with mouse 4T1 cells assessed as hyperacetylation of H3K27 level by Western blot analysis; assay type: functional, organism-based; conditions: dose 5-15 mg/kg
4T1 [24] = experiment: In-vivo inhibition of HDAC3 in ip dosed BALB/c mouse implanted with mouse 4T1 cells assessed as hyperacetylation of H4K12 level by Western blot analysis; assay type: functional, organism-based; conditions: dose 5-15 mg/kg
4T1 [25] = experiment: In-vivo inhibition of HDAC3 in BALB/c mouse implanted with mouse 4T1 cells assessed as increase in acetylation of SMC3 level at 5 to 15 mg/kg, ip by Western blot analysis; assay type: functional, organism-based; conditions: dose 5-15 mg/kg
4T1 [26] = experiment: Antitumor activity against mouse 4T1 cells implanted in BALB/c mouse assessed as upregulation of caspase-7 level in tumor at 5 to 15 mg/kg, ip by Western blot analysis; assay type: functional, organism-based; conditions: dose 5-15 mg/kg
4T1 [27] = experiment: Antitumor activity against mouse 4T1 cells implanted in BALB/c mouse assessed as downregulation of Bcl-2 level in tumor at 5 to 15 mg/kg, ip by Western blot analysis; assay type: functional, organism-based; conditions: dose 5-15 mg/kg
4T1 [28] = experiment: Antitumor activity against mouse 4T1 cells implanted in BALB/c mouse assessed as reduction in CD44 protein level in tumor at 5 to 15 mg/kg, ip by Western blot analysis; assay type: functional, organism-based; conditions: dose 5-15 mg/kg

Chain of Histone deacetylase 1 (Q13547 whole entry): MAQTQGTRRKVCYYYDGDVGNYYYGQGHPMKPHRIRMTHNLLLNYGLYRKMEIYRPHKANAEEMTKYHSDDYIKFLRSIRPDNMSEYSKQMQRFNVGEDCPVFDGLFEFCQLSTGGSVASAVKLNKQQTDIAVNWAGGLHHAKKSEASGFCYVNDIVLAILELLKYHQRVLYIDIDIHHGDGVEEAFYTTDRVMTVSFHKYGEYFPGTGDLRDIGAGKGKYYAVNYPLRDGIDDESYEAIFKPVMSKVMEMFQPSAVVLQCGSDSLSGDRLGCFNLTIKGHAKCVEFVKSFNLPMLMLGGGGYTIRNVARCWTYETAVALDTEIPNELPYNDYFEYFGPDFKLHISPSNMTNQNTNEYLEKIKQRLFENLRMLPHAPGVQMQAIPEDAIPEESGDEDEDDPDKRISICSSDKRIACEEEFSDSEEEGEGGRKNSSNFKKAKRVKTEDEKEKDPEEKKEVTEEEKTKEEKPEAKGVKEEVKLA

inhibition (Histone deacetylase 1): < 17%
AUC(0-t) at 24 h [2]: 19600 ng·h/mL
MRT inf [3]: 5.73 h
Vz/F [4]: 7.01 (mg/kg)/(ug/ml)
IC50 (Histone deacetylase 2): 1.7 µM
IC50 (Histone deacetylase 3): 0.014 µM
IC50 (Histone deacetylase 4): > 20 µM
SMILES: CCCNNC(=O)c1cnc(NCc2ccc(OC)cc2)cn1
IC50 (MDA-MB-453): 1.72 µM
IC50 at 72 h [1]: 212 µM
selectivity ratio [5]: 286
selectivity ratio [6]: 286
selectivity ratio [7]: 286
selectivity ratio [8]: 286
selectivity ratio [9]: 286
Activity (4T1 [10]): 36.8%
Activity (4T1 [11]): 46.9%
Activity (4T1 [12]): 63.4%
IC50 (MDA-MB-231): 0.743 µM
Activity (4T1 [13]): Active
Activity [14]: Non-Toxic
Activity (4T1 [15]): 0.65 g
inhibition in vivo at 5 mg/kg (4T1 [16]): 91.2%
inhibition in vivo at 15 mg/kg (4T1 [17]): 97.3%
Activity (4T1 [18]): Active
Activity [19]: Non-Toxic
Activity [20]: Non-Toxic
Activity [21]: Non-Toxic
Activity (4T1 [22]): Active
inhibition (4T1 [23]): Dose-Dependent Effect
inhibition (4T1 [24]): Dose-Dependent Effect
inhibition (4T1 [25]): Active
Activity (4T1 [26]): Active
Activity (4T1 [27]): Active
Activity (4T1 [28]): Active

Source: ChEMBL document CHEMBL5365457, “Selective HDAC3 Inhibitors with Potent In Vivo Antitumor Efficacy against Triple-Negative Breast Cancer” (J Med Chem, 2023)
